# In patent US20240279319A1, “ANTIBODY FOR IDENTIFYING PHOSPHORYLATION-SPECIFIC REACTIONS OF THREONINE AT POSITION 1010 OF NCAPG2, AND USE THEREOF” (NATIONAL CANCER CENTER, priority 2021, published 2024):
# Test system: NCAPG2 pT1010
# Assay: NCAPG2 pT1010-specific antibody reactivity after phosphorylase inhibitor treatment of nocodazole-treated breast cancer cells
# Type: cell-based, human
# Conditions: MBAMB 231 treated with nocodazole, then inhibitor for 2 hours; FIG. 1B, 1C
# Procedure: In addition, to confirm a phosphorylase inducing phosphorylation, after treating a breast cancer cell line MBAMB 231 with nocodazole, which is a mitosis-inducing reagent, and then with inhibitors of phosphorylases regulating mitosis for 2 hours, the reactivity of the NCAPG2 pT1010-specific antibody was confirmed.
row,SMILES,NCAPG2 pT1010 phosphospecific bands after kinase inhibition
1,c1nc2nc(Nc3ccc(N4CCOCC4)cc3)nc(NC3CCCCC3)c2[nH]1 [reversine],phosphospecific bands disappear
2,O=C1NC(=NCc2cccs2)S/C1=C\c1ccc2ncccc2c1 [RO3306],phosphospecific bands disappear
